Measurements reported in PubChem BioAssay (NCI).
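GI50 is the concentration that inhibits growth by half. TGI marks complete inhibition of growth.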

How the values were obtained:
Test in all cases: NCI anticancer screen, dose series, 384-well format
OVCAR-3 ovarian = test system: OVCAR-3 ovarian
MALME-3M melanoma = test system: MALME-3M melanoma
COLO 205 colon = test system: COLO 205 colon
KM12 colon = test system: KM12 colon
NCI/ADR-RES ovarian = test system: NCI/ADR-RES ovarian
SF-539 CNS = test system: SF-539 CNS
NCI-H226 lung = test system: NCI-H226 lung
NCI-H460 NSCLC = test system: NCI-H460 NSCLC
SK-OV-3 ovarian = test system: SK-OV-3 ovarian
IGROV1 ovarian = test system: IGROV1 ovarian
NCI-H522 lung = test system: NCI-H522 lung
786-0 renal = test system: 786-0 renal
HT29 colon = test system: HT29 colon
UO-31 renal = test system: UO-31 renal
ACHN renal = test system: ACHN renal
OVCAR-4 ovarian = test system: OVCAR-4 ovarian
U251 glioblastoma = test system: U251 glioblastoma
NCI-H23 lung = test system: NCI-H23 lung
SK-MEL-2 melanoma = test system: SK-MEL-2 melanoma
SNB-19 CNS = test system: SNB-19 CNS
MDA-MB-435 melanoma = test system: MDA-MB-435 melanoma
NCI-H322M lung = test system: NCI-H322M lung
HCC-2998 colon = test system: HCC-2998 colon
K-562 leukemia = test system: K-562 leukemia
T-47D breast = test system: T-47D breast
M14 melanoma = test system: M14 melanoma
SK-MEL-28 melanoma = test system: SK-MEL-28 melanoma
TK-10 renal = test system: TK-10 renal

For `C=CCN1CC(=O)N2[C@@H](Cc3ccc(O)cc3F)C(=O)N(Cc3cccc(N4CC(N5CCN(CC)CC5)C4)n3)C[C@@H]2N1C(=O)NCc1ccccc1`, the GI50 (OVCAR-3 ovarian) was 24.4 nM, the TGI (OVCAR-3 ovarian) was 84.6 nM and the GI50 (MALME-3M melanoma) was 23 nM. The TGI (MALME-3M melanoma) was 63.1 nM, the GI50 (COLO 205 colon) was 19.8 nM and the TGI (COLO 205 colon) was 80.3 nM. It also gave a GI50 (KM12 colon) of 36.8 nM, a TGI (KM12 colon) of 32300 nM and a GI50 (NCI/ADR-RES ovarian) of 3130 nM. It also gave a TGI (NCI/ADR-RES ovarian) of 23600 nM, a GI50 (SF-539 CNS) of 21.5 nM and a TGI (SF-539 CNS) of 71.9 nM. It also gave a GI50 (NCI-H226 lung) of 28.4 nM, a TGI (NCI-H226 lung) of 372 nM and a GI50 (NCI-H460 NSCLC) of 21.7 nM. The TGI (NCI-H460 NSCLC) was 90.4 nM, the GI50 (SK-OV-3 ovarian) was 25.5 nM and the TGI (SK-OV-3 ovarian) was 68.7 nM. The GI50 (IGROV1 ovarian) was 23.1 nM, the TGI (IGROV1 ovarian) was 59.9 nM and the GI50 (NCI-H522 lung) was 16.2 nM. The TGI (NCI-H522 lung) was 82.7 nM, the GI50 ([…]-0 renal) was 35.9 nM and the TGI (786-0 renal) was 680 nM. For the same molecule, the GI50 (HT29 colon) was 52.1 nM, the TGI (HT29 colon) was 12900 nM and the GI50 (UO-31 renal) was 408 nM. It also gave a TGI (UO-31 renal) of 3690 nM, a GI50 (ACHN renal) of 231 nM and a TGI (ACHN renal) of 1990 nM. The GI50 (OVCAR-4 ovarian) was 23.2 nM, the TGI (OVCAR-4 ovarian) was 74.1 nM and the GI50 (U251 glioblastoma) was 23.6 nM. For the same molecule, the TGI (U251 glioblastoma) was 88.8 nM, the GI50 (NCI-H23 lung) was 24 nM and the TGI (NCI-H23 lung) was 91.2 nM. It also gave a GI50 (SK-MEL-2 melanoma) of 20.6 nM, a TGI (SK-MEL-2 melanoma) of 83.1 nM and a GI50 (SNB-19 CNS) of 25 nM. The TGI (SNB-19 CNS) was 226 nM, the GI50 (MDA-MB-435 melanoma) was 60.8 nM and the TGI (MDA-MB-435 melanoma) was 32400 nM. For the same molecule, the GI50 (NCI-H322M lung) was 54.6 nM, the TGI (NCI-H322M lung) was 2210 nM and the GI50 (HCC-2998 colon) was 41.3 nM. For the same molecule, the TGI (HCC-2998 colon) was 398 nM, the GI50 (K-562 leukemia) was 35.9 nM and the TGI (K-562 leukemia) was 18100 nM. It also gave a GI50 (T-47D breast) of 27.2 nM, a TGI (T-47D breast) of 193 nM and a GI50 (M14 melanoma) of 32.1 nM. It also gave a TGI (M14 melanoma) of 196 nM, a GI50 (SK-MEL-28 melanoma) of 25.9 nM and a TGI (SK-MEL-28 melanoma) of 77 nM. It also gave a GI50 (TK-10 renal) of 52.6 nM and a TGI (TK-10 renal) of 637 nM.
